Experimental data: ChEMBL document CHEMBL1201862, “PubChem BioAssay data set” (2004)
Active and inactive are the calls of the source.

Columns and labels:
Tumor necrosis factor = Tumor necrosis factor (Homo sapiens, UniProt P01375); test: analog potency on TNFa NF-kB signaling – cell-based, set 3, SAR follow-up (AID 2801); format: functional
Bcl-2-related protein A1 [1] = target: T1, Bcl-2-related protein A1 (Mus musculus, UniProt Q07440); test: Bfl-1 binding inhibitors, SAR follow-up, biochemical, fluorescence polarization (AID 1070)
T1 sequence (Q07440 whole entry): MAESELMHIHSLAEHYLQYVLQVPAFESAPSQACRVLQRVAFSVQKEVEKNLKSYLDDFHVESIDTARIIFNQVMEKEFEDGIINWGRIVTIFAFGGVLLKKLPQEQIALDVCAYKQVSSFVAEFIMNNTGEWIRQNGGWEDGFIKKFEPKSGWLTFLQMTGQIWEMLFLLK

[2] = target: Glyceraldehyde-3-phosphate dehydrogenase (Homo sapiens, UniProt P04406)
HEK293 = test: SAR analysis of compounds that are cytotoxic to HEK293 - Set 3. [Related pubchem assays (depositor defined):AID1575, AID1578, AID1848, AID1849, AID2001, AID2333, AID2334, AID2335, AID2337, AID2469]; format: functional, cell-based; details: Homo sapiens
Bcl-2-related protein A1 [3] = target: T1, Bcl-2-related protein A1; test: small-molecule antagonists of Bfl-1/BH3 interaction – biochemical, TR-FRET, mouse Bfl-1, confirmation (AID 621);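 further: TR-FRET binding of GST-Bfl-1 to FITC-labelled Bid peptide via terbium antibody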
[4] = target: Nucleotide-binding oligomerization domain-containing protein 2 (Homo sapiens, UniProt Q9HC29); test: inhibition of MDP-driven NOD2 NF-kB reporter – cell-based, set 3, SAR follow-up (AID 2799); format: functional
[5] = target: T2, Nucleotide-binding oligomerization domain-containing protein 1 (Homo sapiens, UniProt Q9Y239); test: SAR analysis of compounds that inhibit NOD1 - Set 3. [Related pubchem assays (depositor defined):AID1566, AID1575, AID1578, AID1849, AID1852, AID2333, AID2335, AID2466]; format: functional
T2 sequence (Q9Y239 whole entry): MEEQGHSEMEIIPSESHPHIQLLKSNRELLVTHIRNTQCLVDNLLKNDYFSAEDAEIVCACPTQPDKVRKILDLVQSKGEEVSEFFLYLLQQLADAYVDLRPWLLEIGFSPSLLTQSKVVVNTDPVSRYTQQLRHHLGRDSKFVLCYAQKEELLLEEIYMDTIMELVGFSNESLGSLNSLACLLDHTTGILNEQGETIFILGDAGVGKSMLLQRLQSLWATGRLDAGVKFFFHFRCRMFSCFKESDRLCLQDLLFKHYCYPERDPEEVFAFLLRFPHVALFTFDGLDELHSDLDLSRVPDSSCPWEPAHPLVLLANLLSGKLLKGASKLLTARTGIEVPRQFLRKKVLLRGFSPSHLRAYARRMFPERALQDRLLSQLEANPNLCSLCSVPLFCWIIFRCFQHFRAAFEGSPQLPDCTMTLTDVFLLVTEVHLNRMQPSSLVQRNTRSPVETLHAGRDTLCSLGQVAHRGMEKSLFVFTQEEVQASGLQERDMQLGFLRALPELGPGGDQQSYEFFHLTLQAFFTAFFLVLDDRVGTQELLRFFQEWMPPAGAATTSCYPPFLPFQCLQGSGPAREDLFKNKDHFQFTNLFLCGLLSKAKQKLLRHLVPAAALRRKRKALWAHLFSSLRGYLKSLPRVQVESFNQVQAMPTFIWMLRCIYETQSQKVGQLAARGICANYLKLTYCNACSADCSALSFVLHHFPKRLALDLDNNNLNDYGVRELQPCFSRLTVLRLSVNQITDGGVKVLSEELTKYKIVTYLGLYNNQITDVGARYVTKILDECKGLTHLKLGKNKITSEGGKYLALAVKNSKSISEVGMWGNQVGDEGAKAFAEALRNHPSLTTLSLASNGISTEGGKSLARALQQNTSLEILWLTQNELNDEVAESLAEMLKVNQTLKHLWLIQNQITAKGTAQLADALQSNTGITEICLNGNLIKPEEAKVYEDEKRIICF

[6] = target: T3, Ubiquitin-conjugating enzyme E2 N (Homo sapiens, UniProt P61088); format: functional
T3 sequence (P61088 whole entry): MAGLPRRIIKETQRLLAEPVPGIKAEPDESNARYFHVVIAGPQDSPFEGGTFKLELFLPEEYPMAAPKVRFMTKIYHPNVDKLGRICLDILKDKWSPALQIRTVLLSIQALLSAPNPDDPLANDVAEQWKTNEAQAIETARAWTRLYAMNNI

[7] = tested on: Streptococcus sp. 'group A'; test: Streptococcus pyogenes SK(-)GAS viability under kanamycin – luminescence, BacTiterGlo, confirmation, counter-screen for streptokinase expression inhibitor project, dose response (AID 1900); format: functional, organism-based
Streptokinase A = target: T4, Streptokinase A (Streptococcus pyogenes serotype M1, UniProt P10520); test: viability-normalized secreted streptokinase activity reduction – plasminogen activation absorbance, OD405, dose response (AID 1914); format: functional, Streptococcus pyogenes M1 GAS;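 further: secreted streptokinase activity via plasminogen activation per viability signal from cell pellet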
T4 sequence (P10520 whole entry): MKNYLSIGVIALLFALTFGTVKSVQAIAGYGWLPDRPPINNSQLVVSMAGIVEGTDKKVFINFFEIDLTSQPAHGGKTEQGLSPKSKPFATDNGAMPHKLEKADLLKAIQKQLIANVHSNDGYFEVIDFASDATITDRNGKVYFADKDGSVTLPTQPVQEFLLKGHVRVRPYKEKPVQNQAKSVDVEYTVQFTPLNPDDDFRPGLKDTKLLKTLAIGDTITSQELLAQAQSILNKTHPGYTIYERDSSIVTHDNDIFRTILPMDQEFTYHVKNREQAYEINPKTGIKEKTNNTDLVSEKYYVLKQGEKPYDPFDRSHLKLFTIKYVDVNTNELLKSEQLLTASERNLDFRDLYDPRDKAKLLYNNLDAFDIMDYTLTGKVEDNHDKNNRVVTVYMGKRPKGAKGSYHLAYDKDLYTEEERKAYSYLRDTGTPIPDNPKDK

Streptococcus = test: GAS UMAA2166 growth inhibition – luminescence, BacTiterGlo, counter-screen for streptokinase expression inhibitor project, dose response (AID 1915); format: functional, organism-based;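 further: potency for reduction of bacterial viability or growth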
[8] = target: T3, Ubiquitin-conjugating enzyme E2 N; format: functional; remark: listed apart in the source
Bcl-2-related protein A1 [9] = target: T1, Bcl-2-related protein A1; format: functional
[10] = target: Voltage-dependent T-type calcium channel subunit alpha-1H (Homo sapiens, UniProt O95180); test: inhibition of CACNA1H calcium flux – cell-based, SynthLib3 library, HEK293 Cav3.2, fluorescence (AID 493041); format: functional
[11] = target: Tyrosine-protein phosphatase non-receptor type 11 (Homo sapiens, UniProt Q06124); test: PTPN11 enzyme inhibitors – biochemical, selectivity assay for STEP inhibitor project, dose response (AID 602367); format: functional; details: read-out: IC50_Mean
[12] = target: T5, Low molecular weight phosphotyrosine protein phosphatase (Homo sapiens, UniProt P24666); format: functional; details: read-out: IC50_Mean
T5 sequence (P24666 whole entry): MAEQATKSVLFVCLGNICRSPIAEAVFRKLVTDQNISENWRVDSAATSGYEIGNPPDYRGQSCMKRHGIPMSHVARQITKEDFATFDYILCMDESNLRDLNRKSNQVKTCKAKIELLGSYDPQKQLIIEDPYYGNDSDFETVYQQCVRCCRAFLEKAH

[13] = target: T5, Low molecular weight phosphotyrosine protein phosphatase; format: functional; details: read-out: IC50_Mean; remark: listed apart in the source
[14] = viability of HCT116 lacking mutant beta-catenin – cell-based, human colon tumor, dose response (AID 1045); format: functional;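 further: HCT116 colon tumor cells with beta catenin knocked out; cells exposed to compound for 60 hours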
[15] = target: T6, Dual specificity protein phosphatase 6 (Rattus norvegicus, UniProt Q64346); test: inhibition of rat DUSP6 enzyme activity – biochemical, in vitro, primary screen (AID 425)
T6 sequence (Q64346 whole entry): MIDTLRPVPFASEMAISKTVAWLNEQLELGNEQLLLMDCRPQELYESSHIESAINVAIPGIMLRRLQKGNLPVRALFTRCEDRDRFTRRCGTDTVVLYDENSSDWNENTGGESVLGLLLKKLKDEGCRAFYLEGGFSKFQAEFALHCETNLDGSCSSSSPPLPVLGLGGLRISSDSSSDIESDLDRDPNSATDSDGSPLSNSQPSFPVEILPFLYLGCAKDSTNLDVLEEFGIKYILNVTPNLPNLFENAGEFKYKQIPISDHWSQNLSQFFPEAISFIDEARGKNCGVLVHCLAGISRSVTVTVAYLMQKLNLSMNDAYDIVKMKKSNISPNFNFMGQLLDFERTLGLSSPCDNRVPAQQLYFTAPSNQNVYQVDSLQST

[16] = target: T7, Dual specificity protein phosphatase 3 (Homo sapiens, UniProt P51452); test: VHR1 phosphatase inhibitors, biochemical (AID 1878)
[17] = target: T7, Dual specificity protein phosphatase 3; test: VHR1 phosphatase inhibitors, primary screen, biochemical, absorbance, uHTS (AID 1654)
[18] = target: T7, Dual specificity protein phosphatase 3; test: VHR phosphatase inhibition, dose response, selectivity assay for STEP inhibitor project, biochemical (AID 602374); format: functional; details: read-out: IC50_Mean
[19] = target: Tyrosine-protein phosphatase non-receptor type 5 (Homo sapiens, UniProt P54829); test: PTPN5 enzyme inhibition – biochemical, fluorescence intensity, uHTS hits, confirmation (AID 602372); format: functional; details: read-out: IC50_Mean
[20] = viability of PTEN-deleted HCT116 cells – cell-based, HCT116 PTEN knockout, dose response (AID 1047); format: functional;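 further: HCT116 colon tumor cells with PTEN knocked out; cells exposed to compound for 60 hours before readout; potency for loss of cell viability measured by luminescence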
[21] = target: T8, Tyrosine-protein phosphatase non-receptor type 7 (Homo sapiens, UniProt P35236); format: functional
T8 sequence (P35236 whole entry): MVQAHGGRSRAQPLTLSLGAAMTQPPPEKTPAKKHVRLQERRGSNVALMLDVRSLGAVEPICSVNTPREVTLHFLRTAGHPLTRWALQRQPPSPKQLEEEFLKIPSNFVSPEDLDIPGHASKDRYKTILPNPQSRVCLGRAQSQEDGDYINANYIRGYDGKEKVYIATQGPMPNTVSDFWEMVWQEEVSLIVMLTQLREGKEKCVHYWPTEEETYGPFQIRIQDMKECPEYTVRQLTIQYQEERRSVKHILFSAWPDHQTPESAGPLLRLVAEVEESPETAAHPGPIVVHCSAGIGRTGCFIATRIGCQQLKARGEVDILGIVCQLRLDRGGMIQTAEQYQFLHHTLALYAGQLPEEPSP

[22] = target: T9, Tyrosine-protein phosphatase non-receptor type 22 (Homo sapiens, UniProt Q9Y2R2); format: functional
T9 sequence (Q9Y2R2 whole entry): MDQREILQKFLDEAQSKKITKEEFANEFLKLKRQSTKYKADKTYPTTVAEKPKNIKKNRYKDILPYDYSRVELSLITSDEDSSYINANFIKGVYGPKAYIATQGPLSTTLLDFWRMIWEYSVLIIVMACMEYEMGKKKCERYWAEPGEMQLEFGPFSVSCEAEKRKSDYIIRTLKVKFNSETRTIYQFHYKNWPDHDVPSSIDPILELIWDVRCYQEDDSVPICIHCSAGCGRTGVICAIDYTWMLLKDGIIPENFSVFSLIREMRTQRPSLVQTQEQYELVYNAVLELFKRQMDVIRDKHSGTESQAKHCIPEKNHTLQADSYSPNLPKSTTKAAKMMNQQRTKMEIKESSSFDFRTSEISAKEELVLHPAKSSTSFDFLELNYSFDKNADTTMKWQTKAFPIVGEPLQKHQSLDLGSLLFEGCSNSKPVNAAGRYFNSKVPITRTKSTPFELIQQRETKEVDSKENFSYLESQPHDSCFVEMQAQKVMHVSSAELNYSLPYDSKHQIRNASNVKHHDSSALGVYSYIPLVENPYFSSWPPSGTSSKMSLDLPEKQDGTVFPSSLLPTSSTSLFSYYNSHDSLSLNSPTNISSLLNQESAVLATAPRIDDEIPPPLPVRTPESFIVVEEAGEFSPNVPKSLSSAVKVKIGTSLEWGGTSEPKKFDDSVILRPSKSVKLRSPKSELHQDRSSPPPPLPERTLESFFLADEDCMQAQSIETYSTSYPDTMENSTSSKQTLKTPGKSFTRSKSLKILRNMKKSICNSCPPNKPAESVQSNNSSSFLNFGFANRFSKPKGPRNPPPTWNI

[23] = target: T9, Tyrosine-protein phosphatase non-receptor type 22; format: functional; remark: listed apart in the source
[24] = target: Signal transducer and activator of transcription 3 (Homo sapiens, UniProt P40763); test: STAT3 blockade with qPCR and toxicity readouts – cell-based, STAT1 panel, cytotoxicity, late-stage follow-up, panel member STAT3 Inhibition (AID 2078)
[25] = target: Signal transducer and activator of transcription 1-alpha/beta (Homo sapiens, UniProt P42224); test: STAT3 blockade with qPCR and toxicity readouts – cell-based, STAT1 panel, cytotoxicity, late-stage follow-up, panel member STAT1 Inhibition (AID 2078)

T7 sequence (P51452 whole entry): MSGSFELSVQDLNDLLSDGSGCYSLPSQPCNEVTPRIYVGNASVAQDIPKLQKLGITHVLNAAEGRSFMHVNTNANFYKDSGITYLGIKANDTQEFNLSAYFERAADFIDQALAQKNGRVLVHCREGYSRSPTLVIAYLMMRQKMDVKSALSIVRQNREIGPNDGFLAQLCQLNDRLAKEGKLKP
Glyceraldehyde-3-phosphate dehydrogenase, sequence (P04406 whole entry): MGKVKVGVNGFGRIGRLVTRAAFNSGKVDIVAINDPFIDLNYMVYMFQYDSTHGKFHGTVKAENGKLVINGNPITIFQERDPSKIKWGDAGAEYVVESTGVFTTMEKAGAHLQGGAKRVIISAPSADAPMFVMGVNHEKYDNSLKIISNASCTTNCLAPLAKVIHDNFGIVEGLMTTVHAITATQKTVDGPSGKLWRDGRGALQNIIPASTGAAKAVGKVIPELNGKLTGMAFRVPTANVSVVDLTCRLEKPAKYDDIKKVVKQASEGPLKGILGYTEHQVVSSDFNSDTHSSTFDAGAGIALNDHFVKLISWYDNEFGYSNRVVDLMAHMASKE
Voltage-dependent T-type calcium channel subunit alpha-1H, sequence (O95180 whole entry): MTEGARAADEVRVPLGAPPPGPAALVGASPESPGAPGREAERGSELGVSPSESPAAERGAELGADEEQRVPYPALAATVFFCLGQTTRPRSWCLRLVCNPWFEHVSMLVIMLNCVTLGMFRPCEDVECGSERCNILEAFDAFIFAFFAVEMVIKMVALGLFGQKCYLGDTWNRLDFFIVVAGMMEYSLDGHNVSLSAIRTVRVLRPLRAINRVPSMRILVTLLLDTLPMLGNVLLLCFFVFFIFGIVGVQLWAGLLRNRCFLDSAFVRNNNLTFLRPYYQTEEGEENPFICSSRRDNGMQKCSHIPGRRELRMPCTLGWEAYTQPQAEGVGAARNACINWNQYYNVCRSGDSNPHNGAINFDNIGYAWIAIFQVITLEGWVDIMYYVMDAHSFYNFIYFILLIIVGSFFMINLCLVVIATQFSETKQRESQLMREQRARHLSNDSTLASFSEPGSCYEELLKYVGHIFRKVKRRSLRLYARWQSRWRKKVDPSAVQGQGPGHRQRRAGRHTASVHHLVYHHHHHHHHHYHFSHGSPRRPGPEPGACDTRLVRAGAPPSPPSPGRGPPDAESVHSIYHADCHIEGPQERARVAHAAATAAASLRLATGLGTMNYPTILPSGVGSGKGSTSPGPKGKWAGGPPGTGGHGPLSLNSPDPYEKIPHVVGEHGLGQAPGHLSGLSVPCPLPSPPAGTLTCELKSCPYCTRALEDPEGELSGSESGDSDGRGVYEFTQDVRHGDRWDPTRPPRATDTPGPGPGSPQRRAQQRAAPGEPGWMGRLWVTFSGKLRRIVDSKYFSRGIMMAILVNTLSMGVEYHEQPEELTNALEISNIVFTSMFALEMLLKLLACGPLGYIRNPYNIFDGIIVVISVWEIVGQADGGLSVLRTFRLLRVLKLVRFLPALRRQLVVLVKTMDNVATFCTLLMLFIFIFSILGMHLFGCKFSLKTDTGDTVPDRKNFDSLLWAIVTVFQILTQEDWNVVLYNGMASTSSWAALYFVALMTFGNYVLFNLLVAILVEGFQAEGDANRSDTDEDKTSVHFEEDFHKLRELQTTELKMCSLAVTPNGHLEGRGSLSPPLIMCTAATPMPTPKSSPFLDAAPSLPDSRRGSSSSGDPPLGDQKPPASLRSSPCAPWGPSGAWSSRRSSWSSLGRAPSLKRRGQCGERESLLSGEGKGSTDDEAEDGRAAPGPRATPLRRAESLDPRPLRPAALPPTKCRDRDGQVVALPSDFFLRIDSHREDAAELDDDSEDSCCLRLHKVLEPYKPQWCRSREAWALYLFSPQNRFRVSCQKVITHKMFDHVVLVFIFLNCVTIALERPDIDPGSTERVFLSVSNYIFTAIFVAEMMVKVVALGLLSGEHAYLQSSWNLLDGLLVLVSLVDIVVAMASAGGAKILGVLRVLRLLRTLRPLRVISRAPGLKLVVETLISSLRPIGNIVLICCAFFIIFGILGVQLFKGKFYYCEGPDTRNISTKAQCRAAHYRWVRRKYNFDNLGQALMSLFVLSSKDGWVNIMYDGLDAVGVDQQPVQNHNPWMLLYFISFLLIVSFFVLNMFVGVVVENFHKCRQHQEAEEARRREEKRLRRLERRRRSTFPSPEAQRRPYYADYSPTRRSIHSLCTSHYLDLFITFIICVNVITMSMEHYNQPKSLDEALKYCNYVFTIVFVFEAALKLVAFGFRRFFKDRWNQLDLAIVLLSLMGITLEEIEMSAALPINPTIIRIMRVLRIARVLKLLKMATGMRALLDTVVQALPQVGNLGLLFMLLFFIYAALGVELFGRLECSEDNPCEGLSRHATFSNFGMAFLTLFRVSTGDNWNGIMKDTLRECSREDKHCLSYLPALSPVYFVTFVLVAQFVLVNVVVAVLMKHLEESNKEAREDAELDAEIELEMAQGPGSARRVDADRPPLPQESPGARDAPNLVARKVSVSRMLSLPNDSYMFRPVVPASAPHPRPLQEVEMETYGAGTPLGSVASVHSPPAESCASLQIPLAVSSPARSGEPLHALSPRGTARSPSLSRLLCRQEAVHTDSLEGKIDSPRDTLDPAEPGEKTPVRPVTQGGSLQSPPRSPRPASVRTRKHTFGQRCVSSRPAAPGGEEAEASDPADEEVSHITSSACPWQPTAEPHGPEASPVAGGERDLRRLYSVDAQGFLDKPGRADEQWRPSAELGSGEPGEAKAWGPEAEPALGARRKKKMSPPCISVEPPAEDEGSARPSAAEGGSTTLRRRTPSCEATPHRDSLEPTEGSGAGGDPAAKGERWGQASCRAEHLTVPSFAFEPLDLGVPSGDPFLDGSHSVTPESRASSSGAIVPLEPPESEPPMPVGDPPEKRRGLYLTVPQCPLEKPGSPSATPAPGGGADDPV
Nucleotide-binding oligomerization domain-containing protein 2, sequence (Q9HC29 whole entry, the tested form may be a part): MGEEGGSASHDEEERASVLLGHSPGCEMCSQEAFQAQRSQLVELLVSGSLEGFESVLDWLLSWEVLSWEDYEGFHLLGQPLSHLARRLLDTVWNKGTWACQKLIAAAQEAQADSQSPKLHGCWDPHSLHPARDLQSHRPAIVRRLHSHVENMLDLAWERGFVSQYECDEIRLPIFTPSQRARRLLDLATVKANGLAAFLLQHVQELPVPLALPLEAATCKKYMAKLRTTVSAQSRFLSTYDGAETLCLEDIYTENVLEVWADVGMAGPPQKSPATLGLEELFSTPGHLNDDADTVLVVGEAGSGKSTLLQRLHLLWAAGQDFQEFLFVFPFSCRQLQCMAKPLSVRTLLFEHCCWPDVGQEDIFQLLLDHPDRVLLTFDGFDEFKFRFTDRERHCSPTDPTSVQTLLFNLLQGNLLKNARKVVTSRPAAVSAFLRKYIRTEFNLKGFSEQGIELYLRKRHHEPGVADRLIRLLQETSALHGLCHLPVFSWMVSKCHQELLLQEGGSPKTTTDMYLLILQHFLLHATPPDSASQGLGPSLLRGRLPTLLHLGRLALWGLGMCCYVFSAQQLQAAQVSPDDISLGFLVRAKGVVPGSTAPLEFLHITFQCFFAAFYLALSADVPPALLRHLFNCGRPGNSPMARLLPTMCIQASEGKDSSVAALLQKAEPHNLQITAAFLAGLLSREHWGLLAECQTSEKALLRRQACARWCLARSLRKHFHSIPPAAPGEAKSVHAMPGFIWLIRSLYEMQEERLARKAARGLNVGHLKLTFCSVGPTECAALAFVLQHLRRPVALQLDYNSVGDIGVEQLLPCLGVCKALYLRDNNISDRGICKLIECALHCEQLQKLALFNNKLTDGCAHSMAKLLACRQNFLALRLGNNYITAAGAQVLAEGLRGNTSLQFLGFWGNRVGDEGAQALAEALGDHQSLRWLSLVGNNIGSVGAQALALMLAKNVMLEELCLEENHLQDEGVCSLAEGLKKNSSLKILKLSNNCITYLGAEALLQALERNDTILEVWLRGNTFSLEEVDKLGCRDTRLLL
Signal transducer and activator of transcription 3, sequence (P40763 whole entry): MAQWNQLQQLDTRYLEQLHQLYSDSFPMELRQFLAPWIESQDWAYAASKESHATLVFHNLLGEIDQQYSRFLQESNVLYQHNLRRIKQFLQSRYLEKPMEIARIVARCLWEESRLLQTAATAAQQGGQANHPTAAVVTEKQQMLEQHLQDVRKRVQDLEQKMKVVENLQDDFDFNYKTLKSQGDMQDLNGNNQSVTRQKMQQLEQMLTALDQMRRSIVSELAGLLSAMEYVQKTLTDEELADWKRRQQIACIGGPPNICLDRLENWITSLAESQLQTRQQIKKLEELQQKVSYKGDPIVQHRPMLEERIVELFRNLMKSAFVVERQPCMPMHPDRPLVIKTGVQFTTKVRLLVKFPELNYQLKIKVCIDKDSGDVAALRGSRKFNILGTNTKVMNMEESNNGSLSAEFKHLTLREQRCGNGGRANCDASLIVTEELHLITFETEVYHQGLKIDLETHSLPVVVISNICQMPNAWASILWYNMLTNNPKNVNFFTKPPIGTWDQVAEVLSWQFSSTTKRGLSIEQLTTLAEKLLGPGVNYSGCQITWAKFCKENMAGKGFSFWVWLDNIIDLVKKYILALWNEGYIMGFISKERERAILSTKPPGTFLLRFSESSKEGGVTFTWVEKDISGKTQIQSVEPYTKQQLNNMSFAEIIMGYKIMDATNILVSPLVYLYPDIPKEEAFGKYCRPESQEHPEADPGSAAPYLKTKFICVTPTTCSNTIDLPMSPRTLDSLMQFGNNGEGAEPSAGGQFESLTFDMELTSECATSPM
Tumor necrosis factor, sequence (P01375 whole entry): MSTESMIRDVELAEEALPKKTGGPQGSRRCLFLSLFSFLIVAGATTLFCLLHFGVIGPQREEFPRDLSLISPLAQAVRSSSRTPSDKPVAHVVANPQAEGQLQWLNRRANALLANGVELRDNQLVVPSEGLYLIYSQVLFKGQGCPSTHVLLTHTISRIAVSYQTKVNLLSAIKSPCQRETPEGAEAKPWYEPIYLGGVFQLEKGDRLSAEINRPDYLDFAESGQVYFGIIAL

SMILES: COc1ccc(-c2cc(N)n(S(=O)(=O)c3ccc(C(C)(C)C)cc3)n2)cc1OC
- IC50 (Tumor necrosis factor): > 20 µM (inactive)
- IC50 (Bcl-2-related protein A1 [1]): > 100 µM (not active)
- IC50 [2]: > 100 µM (not active)
- IC50 (HEK293): > 20 µM (inactive)
- IC50 (Bcl-2-related protein A1 [3]): > 100 µM (not active)
- IC50 [4]: > 20 µM (inactive)
- IC50 [5]: > 20 µM (inactive)

SMILES: COc1ccc(OCC(=O)NNC(=S)NC(=O)C2CC2)cc1
- IC50 [6]: 6.63 µM (active)
- EC50 [7]: 7.37 µM (active)
- EC50 (Streptokinase A): > 150 µM (not active)
- EC50 (Streptococcus): 23.3 µM (active)
- IC50 [8]: 14.8 µM (active)
- IC50 (Bcl-2-related protein A1 [9]): > 20 µM (inactive)

SMILES: CCC(CC)CN1CC2CCC(NC(=O)c3cc(Cl)cc(Cl)c3)C2C1 (centres undefined)
- EC50 [10]: 2.4 µM (active)

SMILES: Cc1ccc(-c2nc(NC(=O)CSc3cc(C)c4ccccc4n3)ns2)cc1
- IC50 [11]: 0.77 µM (active)
- IC50 [12]: 9.06 µM (active)
- IC50 [13]: 11.7 µM (active)
- EC50 [14]: 17.9 µM (active)
- IC50 [15]: 24.3 µM (active)
- IC50 [16]: 8.86 µM (active)
- IC50 [17]: 27.3 µM (active)
- IC50 [18]: 1.31 µM (active)
- IC50 [19]: 3.06 µM (active)
- EC50 [20]: 29.1 µM (active)

SMILES: O=C(C[S+]([O-])CC(=O)Nc1ccc(Cl)cc1)NCC1OCCc2ccccc21 (centres undefined)
- IC50 [21]: > 79.4 µM (inactive)
- IC50 [22]: > 79.4 µM (inactive)
- IC50 [23]: > 79.4 µM (inactive)

SMILES: COc1ccc(CN2CCN(c3ncnc4sc5c(c34)CCCCC5)CC2)cc1
- IC50 [24]: > 18.6 µM (inactive)
- IC50 [25]: > 55.7 µM (inactive)
